Assay results as given in patent publication US5294611A, “Angiotensin II receptor blocking 2,3,6 substituted quinazolinones” (American Cyanamid Company, priority 1993, dated 1994).
Like-named read-outs stand apart in the source and are kept apart here.

Tested on: Angiotensin II (AII) vasopressor response
Assay: AII Challenge: antagonism of angiotensin II vasopressor response in conscious spontaneously hypertensive rats
Assay type: in vivo, rat (male okamoto-Aoki SHR)
Details: for inhibition in vivo at 1 mg/kg / inhibition in vivo at 3 mg/kg / inhibition in vivo at 5 mg/kg: Rattus norvegicus; for inhibition in vivo at 1 mg/kg / inhibition in vivo at 3 mg/kg: iv; for inhibition in vivo at 1 mg/kg / inhibition in vivo at 3 mg/kg / inhibition in vivo at 5 mg/kg / Average Change: SHR n=2; for inhibition in vivo at 3 mg/kg / inhibition in vivo at 5 mg/kg: read-out: Inhibition; for inhibition in vivo at 5 mg/kg: po
Procedure, shortened: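 Conscious male SHR (16–20 weeks, ~330 g) cannulated under local procaine, blood pressure recorded via transducer. Angiotensin II (human) 0.05 and 0.1 ug/kg i.v. given before and after test compound dosed i.v., i.p. or orally; response measured as rise in systolic pressure (mmHg).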

CCCCc1nc2ccc([C@H]3[C@@H]4CCC[C@@H]4ON3C)cc2c(=O)n1Cc1ccc(-c2ccccc2-c2nnn[nH]2)cc1 (relative stereo) [Example 50]
inhibition in vivo at 1 mg/kg (0.5 h, 1 mg/kg I.V., AII 0.05 mcg/kg IV, 30 min post dose): 17% | inhibition in vivo at 1 mg/kg (0.5 h, 1 mg/kg I.V., AII 0.1 mcg/kg IV, 30 min post dose): 39% | inhibition in vivo at 3 mg/kg (0.5 h, 3 mg/kg I.V., AII 0.05 mcg/kg IV, 30 min post dose): 64% | inhibition in vivo at 3 mg/kg (0.5 h, 3 mg/kg I.V., AII 0.1 mcg/kg IV, 30 min post dose): 66% | inhibition in vivo at 1 mg/kg (1 h, 1 mg/kg I.V., AII 0.05 mcg/kg IV, 60 min post dose): 17% | inhibition in vivo at 1 mg/kg (1 h, 1 mg/kg I.V., AII 0.1 mcg/kg IV, 60 min post dose): 27% | inhibition in vivo at 3 mg/kg (1 h, 3 mg/kg I.V., AII 0.05 mcg/kg IV, 60 min post dose): 70% | inhibition in vivo at 3 mg/kg (1 h, 3 mg/kg I.V., AII 0.1 mcg/kg IV, 60 min post dose): 65% | inhibition in vivo at 1 mg/kg (2 h, 1 mg/kg I.V., AII 0.05 mcg/kg IV, 120 min post dose): 17% | inhibition in vivo at 1 mg/kg (2 h, 1 mg/kg I.V., AII 0.1 mcg/kg IV, 120 min post dose): 35% | inhibition in vivo at 3 mg/kg (2 h, 3 mg/kg I.V., AII 0.05 mcg/kg IV, 120 min post dose): 66% | inhibition in vivo at 3 mg/kg (2 h, 3 mg/kg I.V., AII 0.1 mcg/kg IV, 120 min post dose): 75% | inhibition in vivo at 1 mg/kg (3 h, 1 mg/kg I.V., AII 0.05 mcg/kg IV, 180 min post dose): 25% | inhibition in vivo at 1 mg/kg (3 h, 1 mg/kg I.V., AII 0.1 mcg/kg IV, 180 min post dose): 33% | inhibition in vivo at 3 mg/kg (3 h, 3 mg/kg I.V., AII 0.05 mcg/kg IV, 180 min post dose): 59% | inhibition in vivo at 3 mg/kg (3 h, 3 mg/kg I.V., AII 0.1 mcg/kg IV, 180 min post dose): 68% | inhibition in vivo at 1 mg/kg (4 h, 1 mg/kg I.V., AII 0.05 mcg/kg IV, 240 min post dose): -8% | inhibition in vivo at 1 mg/kg (4 h, 1 mg/kg I.V., AII 0.1 mcg/kg IV, 240 min post dose): -16% | inhibition in vivo at 1 mg/kg (5 h, 1 mg/kg I.V., AII 0.05 mcg/kg IV, 300 min post dose): -25% | inhibition in vivo at 1 mg/kg (5 h, 1 mg/kg I.V., AII 0.1 mcg/kg IV, 300 min post dose): -11% | inhibition in vivo at 1 mg/kg (16.5 h, 1 mg/kg I.V., AII 0.05 mcg/kg IV, 990 min post dose (so in the source)): 20% | inhibition in vivo at 1 mg/kg (16.5 h, 1 mg/kg I.V., AII 0.1 mcg/kg IV, 990 min post dose (so in the source)): 9% | inhibition in vivo at 3 mg/kg ([…], 3 mg/kg I.V., AII 0.05 mcg/kg IV, 90 min post dose): 80% | inhibition in vivo at 3 mg/kg ([…], 3 mg/kg I.V., AII 0.1 mcg/kg IV, 90 min post dose): 52% | inhibition in vivo at 5 mg/kg (0.5 h, 5 mg/kg P.O., AII 0.05 mcg/kg IV, 30 min post dose): 47% | inhibition in vivo at 5 mg/kg (0.5 h, 5 mg/kg P.O., AII 0.1 mcg/kg IV, 30 min post dose): 25% | inhibition in vivo at 5 mg/kg (1 h, 5 mg/kg P.O., AII 0.05 mcg/kg IV, 60 min post dose): 47% | inhibition in vivo at 5 mg/kg (1 h, 5 mg/kg P.O., AII 0.1 mcg/kg IV, 60 min post dose): 32% | inhibition in vivo at 5 mg/kg (2 h, 5 mg/kg P.O., AII 0.05 mcg/kg IV, 120 min post dose): 68% | inhibition in vivo at 5 mg/kg (3 h, 5 mg/kg P.O., AII 0.05 mcg/kg IV, 180 min post dose): 35% | inhibition in vivo at 5 mg/kg (3 h, 5 mg/kg P.O., AII 0.1 mcg/kg IV, 180 min post dose): 18% | inhibition in vivo at 5 mg/kg ([…], 5 mg/kg P.O., AII 0.05 mcg/kg IV, 90 min post dose): 53% | inhibition in vivo at 5 mg/kg ([…], 5 mg/kg P.O., AII 0.1 mcg/kg IV, 90 min post dose): 52% | Average Change (1 mg/kg I.V., AII 0.05 mcg/kg IV, 30 min post dose): 25 mmHg | Average Change (1 mg/kg I.V., AII 0.05 mcg/kg IV, 60 min post dose): 25 mmHg | Average Change (1 mg/kg I.V., AII 0.05 mcg/kg IV, 120 min post dose): 25 mmHg | Average Change (1 mg/kg I.V., AII 0.05 mcg/kg IV, 180 min post dose): 22.5 mmHg | Average Change (1 mg/kg I.V., AII 0.05 mcg/kg IV, 240 min post dose): 32.5 mmHg | Average Change (1 mg/kg I.V., AII 0.05 mcg/kg IV, 300 min post dose): 37.5 mmHg | Average Change (1 mg/kg I.V., AII 0.05 mcg/kg IV, 990 min post dose (so in the source)): 24 mmHg | Average Change (1 mg/kg I.V., AII 0.1 mcg/kg IV, 30 min post dose): 25 mmHg | Average Change (1 mg/kg I.V., AII 0.1 mcg/kg IV, 60 min post dose): 30 mmHg | Average Change (1 mg/kg I.V., AII 0.1 mcg/kg IV, 120 min post dose): 26.5 mmHg | Average Change (1 mg/kg I.V., AII 0.1 mcg/kg IV, 180 min post dose): 27.5 mmHg | Average Change (1 mg/kg I.V., AII 0.1 mcg/kg IV, 240 min post dose): 47.5 mmHg | Average Change (1 mg/kg I.V., AII 0.1 mcg/kg IV, 300 min post dose): 45.5 mmHg | Average Change (1 mg/kg I.V., AII 0.1 mcg/kg IV, 990 min post dose (so in the source)): 37.5 mmHg | Average Change (3 mg/kg I.V., AII 0.05 mcg/kg IV, 30 min post dose): 20 mmHg | Average Change (3 mg/kg I.V., AII 0.05 mcg/kg IV, 60 min post dose): 16.5 mmHg | Average Change (3 mg/kg I.V., AII 0.05 mcg/kg IV, 90 min post dose): 11 mmHg | Average Change (3 mg/kg I.V., AII 0.05 mcg/kg IV, 120 min post dose): 18.5 mmHg | Average Change (3 mg/kg I.V., AII 0.05 mcg/kg IV, 180 min post dose): 22.5 mmHg | Average Change (3 mg/kg I.V., AII 0.1 mcg/kg IV, 30 min post dose): 18.5 mmHg | Average Change (3 mg/kg I.V., AII 0.1 mcg/kg IV, 60 min post dose): 19 mmHg | Average Change (3 mg/kg I.V., AII 0.1 mcg/kg IV, 90 min post dose): 26.5 mmHg | Average Change (3 mg/kg I.V., AII 0.1 mcg/kg IV, 120 min post dose): 14 mmHg | Average Change (3 mg/kg I.V., AII 0.1 mcg/kg IV, 180 min post dose): 17.5 mmHg | Average Change (5 mg/kg P.O., AII 0.05 mcg/kg IV, 30 min post dose): 22.5 mmHg | Average Change (5 mg/kg P.O., AII 0.05 mcg/kg IV, 60 min post dose): 22.5 mmHg | Average Change (5 mg/kg P.O., AII 0.05 mcg/kg IV, 90 min post dose): 20 mmHg | Average Change (5 mg/kg P.O., AII 0.05 mcg/kg IV, 120 min post dose): 13.5 mmHg | Average Change (5 mg/kg P.O., AII 0.05 mcg/kg IV, 180 min post dose): 27.5 mmHg | Average Change (5 mg/kg P.O., AII 0.1 mcg/kg IV, 30 min post dose): 32 mmHg | Average Change (5 mg/kg P.O., AII 0.1 mcg/kg IV, 60 min post dose): 29 mmHg | Average Change (5 mg/kg P.O., AII 0.1 mcg/kg IV, 90 min post dose): 20.5 mmHg | Average Change (5 mg/kg P.O., AII 0.1 mcg/kg IV, 120 min post dose): 22.5 mmHg | Average Change (5 mg/kg P.O., AII 0.1 mcg/kg IV, 180 min post dose): 35 mmHg | Change (single SHR, 5 mg/kg P.O., AII 0.1 mcg/kg IV, 180 min post dose): 35 mmHg
